Reference: US9475812B2, “Pyridonaphthyridine type dual PI3K and mTOR inhibitor and its preparation and use” (Xuanzhu Pharma Co., Ltd., priority 2011, dated 2016)
Where two headings read alike, the source gives them in different places.

Columns and labels:
[1] = target: mTOR (Homo sapiens, UniProt P42345); assay: mTOR enzymology assay (in vitro enzyme inhibition, ULight-4E-BP1 peptide, Lance signal); assay type: biochemical; settings: mTOR 2.5 nM, ULight-4E-BP1 peptide 50 nM, ATP 10.8 uM, 60 mins
Experimental: mTOR Enzymology Assay Procedures
1. The agent's final concentrations and the compound solution preparation
1.1 mTOR (2.5 nM) kinase solution, substrate ULight-4E-BP1 peptide 50 nM, ATP 10.8 uM;
(§1) 1.2 4 folds kinase solution, 2 folds substrate and ATP solution;
(§2) 1.3 test compound 1 mM stock solution (final concentration 100 folds of DMSO solution).
(§3) 2.1 test compound 1 mM, diluted with DMSO 4 folds gradient, and then diluted with kinase buffer 25 folds;
(§4) 2.2 To each well in a 384-well plate was added 2.5 μL series diluted compounds;
2.3 To each well was added 2.5 μL 4 fold kinase solution;
(§5) 2.4 To each well was added 2.5 μL substrate/ATP solution;
(§6) 2.5 incubated for 60 mins;
2.6 Envision data reading Lance signal (665 nM).
The inhibition ratio %=(Lance signal−min)/(max−min)×100
wherein “max” is the DMSO control containing the enzyme but not containing the compound; “min” is the control without the kinase.
Input the data into GraphPad Prism5.0 to plot a curve and obtain IC50.

[2] = target: PI3Kα (Homo sapiens, UniProt P42336); assay: PI3Kα enzymology assay (in vitro enzyme inhibition); assay type: biochemical; settings: PI3Kα 1.65 nM, PIP2 50 μM, ATP 25 μM, 60 mins
Experimental: PI3Kα Enzymology Assay Procedures
1. The agent's final concentrations and the compound formulation
1.1 PI3Kα (1.65 nM) kinase solution, substrate PIP2 50 μM, ATP 25 μM;
as §1, §2, §3, §4
2.3 To each well was added 2.5 μL 4 folds kinase solution;
as §5, §6
2.6 Envision data reading: Lance signal ([…]).
The inhibition ratio %=(sample RLU−min)/(max−min)×100
wherein “max” is the control without the kinase; “min” is the DMSO control containing the enzyme but not containing the compound.
Data were input into GraphPad Prism 5.0 to plot a curve and obtain IC50.

[3] = system: A549 cells; assay: In vitro cellular inhibitory activity, XTT cell viability, A549; assay type: cell-based; settings: Homo sapiens, 72 hours
Experimental: (§7) 1. Formulating the agents and the compounds: Formulating the PBS, the XTT working liquor, the paclitaxel stock solution and gradient dilute solutions thereof, and the stock solution of test compound and gradient dilute solutions of test compounds.
(§8) 2. Culturing cells: Thawing cells, Passing cells, Freezing and preserving cells.
(§9) Preparing the cell suspension;
(§10) The cell suspension was added to a 96-well plate, 100 μL per well;
(§11) The plate was placed in the incubator and incubated at 37° C. under 5% CO2 overnight.
(§12) Drugs were added to the cell culture plate. The plate was placed in the CO2 incubator and incubated for 72 hours.
(§13) 5. Testing the cell viability with the XTT method
(§14) The XTT working solution was added to the plate. The plate was placed in the CO2 incubator for 2 hours. Then the plate was placed in a microplate reader to read the absorbance at 450 nm.
(§15) 1) % inhibition=(Absorbance (Vehicle)−Absorbance(Compound))/(Absorbance(Vehicle)−Absorbance(positive control)×100%;
(§16) 2) Data were input into GraphPad Prism 5.0 to plot a curve and obtain IC50.

[4] = system: U87MG cells; assay: In vitro cellular inhibitory activity, XTT cell viability, U87MG; assay type: cell-based; settings: Homo sapiens, U-87 MG, 72 hours
Experimental: as §7, §8, §9, §10, §11, §12, §13, §14, §15, §16

[5] = Pharmacokinetic assay in rat in vivo; settings: Sprague-Dawley (SD), plasma, male SD rats; for half-life: read-out: T1/2 (half-life) (converted); for bioavailability: PO(4 mg/kg) vs IV, read-out: F(%) absolute bioavailability
Experimental: Male SD rats, each test substance, each administration, three rats were used, having a body weight of 200-250 g.
the present compounds: Compound 16, dissolved with 5% NMP+60% PEG400+35% sterile water for injection, other compounds, dissolved with 5% NMP+40% PEG400+55% sterile water for injection.
Blood collection: each of about 100 μL whole blood were collected at 0 h before administration (pre-administration), and at 0.083 h, 0.25 h, 0.5 h, 1 h, 2 h, 4 h, 6 h, 8 h and 24 h after administration. The collected blood samples were centrifuged at 8000 rpm in a high-speed centrifuge for 6 mins to separate the blood plasm. The separated plasm was freezing-preserved at −80° C. in a refrigerator.
Plasm sample analysis: The plasm sample was treated by a liquid-liquid extraction. 20 μL of the plasm was taken, subjected to a vortex at 1500 rpm for 10 mins, and then centrifuged at 12000 rpm for 5 mins. 400 μL of the supernatant was taken and blowed to dryness in the nitrogen gas. The resulting substance is re-dissolved in 200 μL methanol:water (1:1, V/V), and the solution was analyzed with LC-MS/MS.

[6] = IV(2 mg/kg), dosage in Table 3 (Compound 16: 0.45 mg/kg)

Sequence of PI3Kα (P42336 whole entry): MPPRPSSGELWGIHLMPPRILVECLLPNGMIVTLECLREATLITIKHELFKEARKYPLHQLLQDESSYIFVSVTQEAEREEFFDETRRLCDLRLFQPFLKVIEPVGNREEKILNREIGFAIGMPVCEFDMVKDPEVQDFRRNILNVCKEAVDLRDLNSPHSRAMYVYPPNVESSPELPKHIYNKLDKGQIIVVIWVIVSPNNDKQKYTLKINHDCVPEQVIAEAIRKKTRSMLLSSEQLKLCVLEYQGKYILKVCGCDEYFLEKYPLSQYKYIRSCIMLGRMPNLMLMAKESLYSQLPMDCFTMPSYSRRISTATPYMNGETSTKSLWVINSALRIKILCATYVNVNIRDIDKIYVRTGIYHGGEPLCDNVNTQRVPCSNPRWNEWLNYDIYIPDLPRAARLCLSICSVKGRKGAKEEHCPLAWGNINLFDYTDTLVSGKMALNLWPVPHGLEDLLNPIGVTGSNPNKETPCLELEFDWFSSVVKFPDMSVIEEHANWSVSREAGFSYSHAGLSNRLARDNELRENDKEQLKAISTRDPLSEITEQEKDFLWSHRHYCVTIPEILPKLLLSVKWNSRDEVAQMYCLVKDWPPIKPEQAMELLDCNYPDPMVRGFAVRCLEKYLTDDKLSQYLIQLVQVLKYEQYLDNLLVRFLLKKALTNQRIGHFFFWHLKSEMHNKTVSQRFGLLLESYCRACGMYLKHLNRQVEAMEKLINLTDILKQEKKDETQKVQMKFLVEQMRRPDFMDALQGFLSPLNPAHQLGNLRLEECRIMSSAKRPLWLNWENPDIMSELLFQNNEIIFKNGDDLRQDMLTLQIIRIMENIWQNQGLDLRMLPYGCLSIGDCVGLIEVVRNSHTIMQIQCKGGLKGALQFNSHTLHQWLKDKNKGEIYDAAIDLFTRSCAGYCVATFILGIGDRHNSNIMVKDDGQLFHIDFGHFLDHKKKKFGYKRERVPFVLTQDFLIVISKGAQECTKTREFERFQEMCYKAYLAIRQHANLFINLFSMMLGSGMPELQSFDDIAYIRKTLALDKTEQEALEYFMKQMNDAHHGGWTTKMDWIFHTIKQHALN
Sequence of PI3Kα (P27986 whole entry partner): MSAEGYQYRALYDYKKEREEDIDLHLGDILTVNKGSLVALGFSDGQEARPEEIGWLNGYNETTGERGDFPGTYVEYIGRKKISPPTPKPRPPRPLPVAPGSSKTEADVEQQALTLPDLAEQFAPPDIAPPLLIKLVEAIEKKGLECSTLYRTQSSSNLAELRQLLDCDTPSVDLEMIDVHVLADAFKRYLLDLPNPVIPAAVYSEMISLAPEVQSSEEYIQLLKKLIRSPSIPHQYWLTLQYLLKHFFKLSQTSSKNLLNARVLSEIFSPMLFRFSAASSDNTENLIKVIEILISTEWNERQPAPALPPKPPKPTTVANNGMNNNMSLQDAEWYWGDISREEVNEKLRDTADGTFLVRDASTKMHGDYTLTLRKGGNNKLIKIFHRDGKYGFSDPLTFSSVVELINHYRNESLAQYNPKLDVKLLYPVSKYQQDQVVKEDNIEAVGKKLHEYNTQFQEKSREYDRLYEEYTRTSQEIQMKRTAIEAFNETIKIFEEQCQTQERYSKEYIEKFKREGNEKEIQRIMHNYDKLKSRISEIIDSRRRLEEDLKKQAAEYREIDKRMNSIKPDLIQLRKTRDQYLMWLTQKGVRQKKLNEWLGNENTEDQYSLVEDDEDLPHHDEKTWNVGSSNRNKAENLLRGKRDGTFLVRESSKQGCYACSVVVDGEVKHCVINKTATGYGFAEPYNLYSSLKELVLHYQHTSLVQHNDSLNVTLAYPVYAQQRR

O=c1ccc2cnc3ccc(-c4ccc(CO)nc4)nc3c2n1-c1cccc(C(F)(F)F)c1 [Compound 18, 2-(6-(hydroxymethyl)pyridin-3-yl)-10-(3-(trifluoromethyl)phenyl)pyrido[3,2-c][1,5]naphthyridin-9(10H)-one]
IC50 [1]: 2.6 nM | IC50 [2]: 3.6 nM

O=c1ccc2cnc3ccc(-c4cnc5[nH]ccc5c4)nc3c2n1-c1cccc(C(F)(F)F)c1 [Compound 39, 2-(1H-pyrrolo[2,3-b]pyridin-5-yl)-10-(3-(trifluoromethyl)phenyl)pyrido[3,2-c][1,5]naphthyridin-9(10H)-one]
IC50 [1]: 0.89 nM | IC50 [3]: 6.8 nM | IC50 [4]: 8.4 nM | IC50 [2]: 2.5 nM

O=c1ccc2cnc3ccc(-c4c[nH]c5ncccc45)nc3c2n1-c1cccc(C(F)(F)F)c1 [Compound 17, 2-(1H-pyrrolo[2,3-b]pyridin-3-yl)-10-(3-(trifluoromethyl)phenyl)pyrido[3,2-c][1,5]naphthyridin-9(10H)-one]
IC50 [1]: 5.3 nM | AUC(0-t) [5, 6]: 0.723 µg·h/mL | half-life [5, 6]: 0.61 h | bioavailability [5]: 20.8% | AUC(0-t) ([5]; PO(4 mg/kg), intragastric): 0.212 µg·h/mL | half-life ([5]; PO(4 mg/kg), intragastric): 5.68 h | IC50 [2]: 45 nM

Nc1ncc(-c2ccc3ncc4ccc(=O)n(-c5cccc(C(F)(F)F)c5)c4c3n2)cn1 [Compound 13, 2-(2-aminopyrimidin-5-yl)-10-(3-(trifluoromethyl)phenyl)pyrido[3,2-c][1,5]naphthyridin-9(10H)-one]
IC50 [1]: 0.47 nM | AUC(0-t) [5, 6]: 0.711 µg·h/mL | half-life [5, 6]: 0.62 h | bioavailability [5]: 49% | AUC(0-t) ([5]; PO(4 mg/kg), intragastric): 0.707 µg·h/mL | half-life ([5]; PO(4 mg/kg), intragastric): 1.44 h | IC50 [4]: 26.4 nM | IC50 [2]: 2.4 nM

CC(C)(C#N)c1ccc(-n2c(=O)ccc3cnc4ccc(-c5ccc(N)nc5)nc4c32)cc1 [Compound 7, 2-(4-(2-(6-aminopyridin-3-yl)-9-oxopyrido[3,2-c][1,5]naphthyridin-10(9H)-yl)phenyl)-2-methylpropanenitrile]
IC50 [4]: 29.3 nM

CN1CCN(c2ccc(-c3ccc4ncc5ccc(=O)n(-c6cccc(C(F)(F)F)c6)c5c4n3)cn2)CC1 [Compound 19, 2-(6-(4-methylpiperazin-1-yl)pyridin-3-yl)-10-(3-(trifluoromethyl)phenyl)pyrido[3,2-c][1,5]naphthyridin-9(10H)-one]
IC50 [1]: 2.3 nM | IC50 [2]: 158 nM

CSc1ccc(-c2ccc3ncc4ccc(=O)n(-c5cccc(C(F)(F)F)c5)c4c3n2)cn1 [Compound 38, 2-(6-(methylthio)pyridin-3-yl)-10-(3-(trifluoromethyl)phenyl)pyrido[3,2-c][1,5]naphthyridin-9(10H)-one]
IC50 [1]: 5 nM | IC50 [2]: 17 nM

CC(=O)Nc1ccc(-c2ccc3ncc4ccc(=O)n(-c5cccc(C(F)(F)F)c5)c4c3n2)cn1 [Compound 15, N-(5-(9-oxo-10-(3-(trifluoromethyl)phenyl)-9,10-dihydropyrido[3,2-c][1,5]naphthyridin-2-yl)pyridin-2-yl)acetamide]
IC50 [1]: 3 nM | AUC(0-t) [5, 6]: 0.441 µg·h/mL | half-life [5, 6]: 0.71 h | bioavailability [5]: 65% | AUC(0-t) ([5]; PO(4 mg/kg), intragastric): 0.55 µg·h/mL | half-life ([5]; PO(4 mg/kg), intragastric): 2.36 h | IC50 [3]: 20.2 nM | IC50 [4]: 12.7 nM | IC50 [2]: 6.1 nM

COc1ncc(-c2ccc3ncc4ccc(=O)n(-c5cccc(C(F)(F)F)c5)c4c3n2)cn1 [Compound 14, 2-(2-methoxypyrimidin-5-yl)-10-(3-(trifluoromethyl)phenyl)pyrido[3,2-c][1,5]naphthyridin-9(10H)-one]
IC50 [1]: 4.4 nM | bioavailability [5]: 42.3% | AUC(0-t) ([5]; PO(4 mg/kg), intragastric): 0.445 µg·h/mL | half-life ([5]; PO(4 mg/kg), intragastric): 3.49 h | IC50 [2]: 8.8 nM

Nc1ccc(-c2ccc3ncc4ccc(=O)n(-c5cccc(C(F)(F)F)c5)c4c3n2)cn1 [Compound 1, 2-(6-aminopyridin-3-yl)-10-(3-(trifluoromethyl)phenyl)pyrido[3,2-c][1,5]naphthyridin-9(10H)-one]
IC50 [1]: 0.87 nM | AUC(0-t) [5, 6]: 1.31 µg·h/mL | half-life [5, 6]: 1.79 h | bioavailability [5]: 43.7% | AUC(0-t) ([5]; PO(4 mg/kg), intragastric): 1.03 µg·h/mL | half-life ([5]; PO(4 mg/kg), intragastric): 2.78 h | IC50 [3]: 11.9 nM | IC50 [4]: 8.9 nM | IC50 [2]: 3.2 nM

Nc1ccc(-c2ccc3ncc4ccc(=O)n(-c5cccc(C(F)(F)F)c5)c4c3c2)cn1 [Torin-2, 9-(6-Aminopyridin-3-yl)-1-(3-(trifluoromethyl)phenyl)benzo[h][1,6]naphthyridin-2(1H)-one, reference compound]
AUC(0-t) [5, 6]: 0.259 µg·h/mL | bioavailability [5]: 22.6% | AUC(0-t) ([5]; PO(4 mg/kg), intragastric): 0.104 µg·h/mL | IC50 [3]: 14.7 nM | IC50 [4]: 12.4 nM

N#Cc1ccc(-c2ccc3ncc4ccc(=O)n(-c5cccc(C(F)(F)F)c5)c4c3n2)cn1 [Compound 16, 5-(9-oxo-10-(3-(trifluoromethyl)phenyl)-9,10-dihydropyrido[3,2-c][1,5]naphthyridin-2-yl)-2-cyanopyridine]
IC50 [1]: 8.7 nM | AUC(0-t) [5, 6]: 0.195 µg·h/mL | half-life [5, 6]: 1.52 h | bioavailability [5]: 23% | AUC(0-t) ([5]; PO(4 mg/kg), intragastric): 0.41 µg·h/mL | half-life ([5]; PO(4 mg/kg), intragastric): 1.67 h | IC50 [2]: 58 nM

O=c1ccc2cnc3ccc(-c4ccc(-n5cccn5)nc4)nc3c2n1-c1cccc(C(F)(F)F)c1 [Compound 20, 2-(6-(1H-pyrazol-1-yl)pyridin-3-yl)-10-(3-(trifluoromethyl)phenyl)pyrido[3,2-c][1,5]naphthyridin-9(10H)-one]
IC50 [1]: 6 nM | IC50 [2]: 104 nM
